Series [1] can be described thus: hygroscopicity (moisture sorption) by DVS. The format is physicochemical. The conditions noted are these: exposed to 95% RH, DVS. The text has this:
The free base of Compound 1 was obtained originally as an amorphous solid, which is slightly hygroscopic with 2.2% water gain from 0 to 80% RH. No form transformation was observed after dynamic vapor sorption (DVS).

A further series deals with T1, HER2 (aa676-1255) (Homo sapiens, UniProt P04626).
T1 construct: HER2 (aa676-1255, recombinant protein purified from insect expression system); made in house; host or cells: insect expression system
Nature of the series: HTRF KinEASE-TK kinase assay. The format is biochemical. As for the experimental part:
(§1) Crystalline Form A* of Compound 1 Sesqui-Maleate was tested against recombinant EGFR/EPHA2/BTK (from Carna Biosciences), ITK/TEC/SRC/PDGFR-beta/TXK/FLT3/VEGFR2/RET (from Life Technologies), and HER2 (aa676-1255, recombinant protein purified from insect expression system) in HTRF KinEASE-TK assay from Cisbio Bioassays according to the manufacturer's instructions. The assay was carried out in a reaction mixture containing kinases, ATP at KM concentration, biotinylated peptide substrate (61TK0BLC, Cisbio Bioassays) and Crystalline Form A* of Compound 1 Sesqui-Maleate. […] After reaction, stop/detection solution was added according to the manufacture's instruction. The stop/detection solution contained Eu+ cryptate conjugated antiphosphotyrosine antibody (61T66kLB, CisBio Bioassays) and Streptavidin-XL665 (610SAXLB, CisBio Bioassays) in buffer containing 25 mM Tris pH7.4, 400 mM KF, 50 mM EDTA, 0.01% BSA, 0.01% Triton X-100. The TR-FRET signals (ratio of fluorescence emission at 665 nm over emission at 620 nm with excitation at 337 nm wavelength) were recorded on a PHERAstar FS plate reader (BMG Labtech) after 1 hr incubation. Phosphorylation of biotinylated peptide substrate led to the binding of both Eu+ cryptate conjugated antiphosphotyrosine antibody and streptaviding-XL665 to the biotinylated peptide. The close proximity of the donor (Eu+ cryptate) and acceptor (XL665) fluorophore led to a high degree of fluorescence resonance energy transfer from the donor fluorophore (at 620 nm) to the acceptor fluorophore (at 665 nm). The IC50 for Crystalline Form A* of Compound 1 Sesqui-Maleate was derived from fitting the dose-response % inhibition data to the four-parameter logistic model by Graphpad Prism software.
A general note: Time-resolved FRET reads energy transfer from a long-lived donor to a nearby acceptor.

In another series the target is T2, VEGFR2 (Homo sapiens, UniProt P35968).
T2 construct: purchased Life Technologies
Nature of the series: HTRF KinEASE-TK kinase assay. The format is biochemical. As for the experimental part:
as §1

A further series deals with T3, WT-EGFR (Homo sapiens, UniProt P00533).
T3 construct: purchased Carna Biosciences
The experiment in a line: HTRF KinEASE-TK kinase assay. The format is biochemical. The protocol:
as §1

The target of a further series is T4, BTK (Homo sapiens, UniProt Q06187).
T4 construct: purchased Carna Biosciences
Nature of the series: HTRF KinEASE-TK kinase assay. The format is biochemical. The protocol:
(§2) Crystalline Form A* of Compound 1 Sesqui-Maleate was tested against recombinant EGFR/EPHA2/BTK (from Carna Biosciences), ITK/TEC/SRC/PDGFR-beta/TXK/FLT3/VEGFR2/RET (from Life Technologies), and HER2 (aa676-1255, recombinant protein purified from insect expression system) in HTRF KinEASE-TK assay from Cisbio Bioassays according to the manufacturer's instructions. The assay was carried out in a reaction mixture containing kinases, ATP at KM concentration, biotinylated peptide substrate (61TK0BLC, Cisbio Bioassays) and Crystalline Form A* of Compound 1 Sesqui-Maleate. The kinase was incubated with Crystalline Form A* of Compound 1 Sesqui-Maleate at RT for 1 hr or 2 hr (for EGFR) and the reaction was initiated by the addition of ATP and substrate. After reaction, stop/detection solution was added according to the manufacture's instruction. The stop/detection solution contained Eu+ cryptate conjugated antiphosphotyrosine antibody (61T66kLB, CisBio Bioassays) and Streptavidin-XL665 (610SAXLB, CisBio Bioassays) in buffer containing 25 mM Tris pH7.4, 400 mM KF, 50 mM EDTA, 0.01% BSA, 0.01% Triton X-100. The TR-FRET signals (ratio of fluorescence emission at 665 nm over emission at 620 nm with excitation at 337 nm wavelength) were recorded on a PHERAstar FS plate reader (BMG Labtech) after 1 hr incubation. Phosphorylation of biotinylated peptide substrate led to the binding of both Eu+ cryptate conjugated antiphosphotyrosine antibody and streptaviding-XL665 to the biotinylated peptide. The close proximity of the donor (Eu+ cryptate) and acceptor (XL665) fluorophore led to a high degree of fluorescence resonance energy transfer from the donor fluorophore (at 620 nm) to the acceptor fluorophore (at 665 nm). The IC50 for Crystalline Form A* of Compound 1 Sesqui-Maleate was derived from fitting the dose-response % inhibition data to the four-parameter logistic model by Graphpad Prism software.

For another series, the target named is T5, SRC (Homo sapiens, UniProt P12931).
T5 construct: purchased Life Technologies
Nature of the series: HTRF KinEASE-TK kinase assay. The series is classed as biochemical. As for the experimental part:
as §2

Another series has as its target T6, TEC (Homo sapiens, UniProt P42680).
T6 construct: purchased Life Technologies
The experiment in a line: HTRF KinEASE-TK kinase assay. The series is classed as biochemical. The protocol:
as §2

The next series has as its target T7, TXK (Homo sapiens, UniProt P42681).
T7 construct: purchased Life Technologies
Nature of the series: HTRF KinEASE-TK kinase assay. The format is biochemical. As for the experimental part: as §2

Structures can show the parent of a compound that is named as a salt. Bounds are passed on as bounds.

These results are taken from patent publication US10351559B2, “Maleate salts of a B-RAF kinase inhibitor, crystalline forms, methods of preparation, and uses therefore” (BeiGene, Ltd., priority 2015, dated 2019).

T5 sequence (P12931 whole entry): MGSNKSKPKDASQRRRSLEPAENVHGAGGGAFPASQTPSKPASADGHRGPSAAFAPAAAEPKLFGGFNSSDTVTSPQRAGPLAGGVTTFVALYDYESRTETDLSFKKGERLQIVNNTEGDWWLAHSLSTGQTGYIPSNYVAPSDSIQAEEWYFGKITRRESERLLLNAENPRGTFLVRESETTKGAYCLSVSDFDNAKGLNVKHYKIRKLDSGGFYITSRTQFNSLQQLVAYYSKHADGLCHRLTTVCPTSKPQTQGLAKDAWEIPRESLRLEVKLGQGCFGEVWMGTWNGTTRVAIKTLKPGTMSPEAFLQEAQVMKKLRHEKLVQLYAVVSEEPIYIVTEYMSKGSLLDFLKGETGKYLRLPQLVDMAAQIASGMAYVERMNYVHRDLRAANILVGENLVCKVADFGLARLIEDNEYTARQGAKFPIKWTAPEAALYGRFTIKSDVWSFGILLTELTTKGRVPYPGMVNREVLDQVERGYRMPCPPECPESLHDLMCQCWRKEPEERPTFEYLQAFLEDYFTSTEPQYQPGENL
T7 sequence (P42681 whole entry): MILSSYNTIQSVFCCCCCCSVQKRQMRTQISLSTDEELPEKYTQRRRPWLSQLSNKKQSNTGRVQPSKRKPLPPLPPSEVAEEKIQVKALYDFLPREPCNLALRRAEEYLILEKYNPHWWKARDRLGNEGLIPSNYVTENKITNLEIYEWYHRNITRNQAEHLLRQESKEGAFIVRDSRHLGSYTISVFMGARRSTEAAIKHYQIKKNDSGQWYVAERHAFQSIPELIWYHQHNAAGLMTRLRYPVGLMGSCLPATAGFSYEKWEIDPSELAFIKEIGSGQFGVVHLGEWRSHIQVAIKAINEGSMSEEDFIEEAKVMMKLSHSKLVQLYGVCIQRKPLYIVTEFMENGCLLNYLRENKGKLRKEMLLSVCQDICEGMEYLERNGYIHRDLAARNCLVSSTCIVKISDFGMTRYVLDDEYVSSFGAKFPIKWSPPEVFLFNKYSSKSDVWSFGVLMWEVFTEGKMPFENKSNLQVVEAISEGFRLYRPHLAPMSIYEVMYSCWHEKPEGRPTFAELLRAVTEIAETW
T2 sequence (P35968 20-1356): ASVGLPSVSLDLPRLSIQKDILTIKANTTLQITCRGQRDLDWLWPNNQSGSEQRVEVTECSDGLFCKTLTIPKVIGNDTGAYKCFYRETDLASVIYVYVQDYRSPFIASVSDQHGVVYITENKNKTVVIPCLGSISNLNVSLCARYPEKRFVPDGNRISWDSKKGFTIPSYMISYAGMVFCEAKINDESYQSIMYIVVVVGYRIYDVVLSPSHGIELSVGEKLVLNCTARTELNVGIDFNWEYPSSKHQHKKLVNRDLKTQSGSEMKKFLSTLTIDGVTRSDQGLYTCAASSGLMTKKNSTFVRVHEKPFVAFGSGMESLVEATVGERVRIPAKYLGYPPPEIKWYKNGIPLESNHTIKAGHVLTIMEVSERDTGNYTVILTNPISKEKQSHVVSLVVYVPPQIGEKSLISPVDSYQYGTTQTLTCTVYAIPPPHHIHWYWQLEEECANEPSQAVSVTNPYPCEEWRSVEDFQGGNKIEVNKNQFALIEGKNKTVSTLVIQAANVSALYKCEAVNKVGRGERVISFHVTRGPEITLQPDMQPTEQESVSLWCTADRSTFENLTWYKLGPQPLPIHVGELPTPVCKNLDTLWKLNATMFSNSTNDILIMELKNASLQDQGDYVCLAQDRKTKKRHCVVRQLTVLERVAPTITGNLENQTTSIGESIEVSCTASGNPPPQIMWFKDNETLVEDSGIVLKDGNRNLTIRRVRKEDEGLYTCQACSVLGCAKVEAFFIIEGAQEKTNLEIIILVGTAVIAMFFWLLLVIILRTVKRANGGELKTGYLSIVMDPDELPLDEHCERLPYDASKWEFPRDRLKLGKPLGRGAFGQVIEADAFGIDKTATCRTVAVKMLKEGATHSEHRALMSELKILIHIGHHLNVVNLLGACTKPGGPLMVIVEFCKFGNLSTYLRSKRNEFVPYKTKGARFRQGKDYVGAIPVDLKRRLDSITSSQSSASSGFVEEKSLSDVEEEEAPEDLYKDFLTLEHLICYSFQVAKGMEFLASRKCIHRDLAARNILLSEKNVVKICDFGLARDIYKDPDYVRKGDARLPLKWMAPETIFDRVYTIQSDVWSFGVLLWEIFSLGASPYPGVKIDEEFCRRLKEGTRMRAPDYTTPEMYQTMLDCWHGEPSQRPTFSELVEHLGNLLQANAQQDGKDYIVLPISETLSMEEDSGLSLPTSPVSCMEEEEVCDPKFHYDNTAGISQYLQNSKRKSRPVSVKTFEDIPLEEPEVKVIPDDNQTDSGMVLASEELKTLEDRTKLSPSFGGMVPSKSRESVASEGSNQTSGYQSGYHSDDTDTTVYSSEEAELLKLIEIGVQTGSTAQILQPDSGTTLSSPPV
T1 sequence (P04626 676-1255): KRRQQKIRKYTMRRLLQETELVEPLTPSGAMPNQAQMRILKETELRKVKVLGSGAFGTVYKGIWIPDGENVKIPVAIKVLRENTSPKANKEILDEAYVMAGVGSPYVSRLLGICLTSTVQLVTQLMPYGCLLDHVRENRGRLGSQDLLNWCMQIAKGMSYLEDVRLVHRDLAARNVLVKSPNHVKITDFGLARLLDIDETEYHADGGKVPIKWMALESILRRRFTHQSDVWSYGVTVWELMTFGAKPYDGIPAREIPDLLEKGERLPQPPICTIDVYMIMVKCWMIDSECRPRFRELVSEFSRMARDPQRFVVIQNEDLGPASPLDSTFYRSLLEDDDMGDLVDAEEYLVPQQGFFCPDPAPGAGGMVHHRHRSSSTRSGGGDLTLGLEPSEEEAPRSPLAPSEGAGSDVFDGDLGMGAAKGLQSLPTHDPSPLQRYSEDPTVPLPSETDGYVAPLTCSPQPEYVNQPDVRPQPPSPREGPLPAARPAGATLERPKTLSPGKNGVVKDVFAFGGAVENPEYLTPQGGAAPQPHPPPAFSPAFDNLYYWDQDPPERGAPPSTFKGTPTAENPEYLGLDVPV
T4 sequence (Q06187 whole entry): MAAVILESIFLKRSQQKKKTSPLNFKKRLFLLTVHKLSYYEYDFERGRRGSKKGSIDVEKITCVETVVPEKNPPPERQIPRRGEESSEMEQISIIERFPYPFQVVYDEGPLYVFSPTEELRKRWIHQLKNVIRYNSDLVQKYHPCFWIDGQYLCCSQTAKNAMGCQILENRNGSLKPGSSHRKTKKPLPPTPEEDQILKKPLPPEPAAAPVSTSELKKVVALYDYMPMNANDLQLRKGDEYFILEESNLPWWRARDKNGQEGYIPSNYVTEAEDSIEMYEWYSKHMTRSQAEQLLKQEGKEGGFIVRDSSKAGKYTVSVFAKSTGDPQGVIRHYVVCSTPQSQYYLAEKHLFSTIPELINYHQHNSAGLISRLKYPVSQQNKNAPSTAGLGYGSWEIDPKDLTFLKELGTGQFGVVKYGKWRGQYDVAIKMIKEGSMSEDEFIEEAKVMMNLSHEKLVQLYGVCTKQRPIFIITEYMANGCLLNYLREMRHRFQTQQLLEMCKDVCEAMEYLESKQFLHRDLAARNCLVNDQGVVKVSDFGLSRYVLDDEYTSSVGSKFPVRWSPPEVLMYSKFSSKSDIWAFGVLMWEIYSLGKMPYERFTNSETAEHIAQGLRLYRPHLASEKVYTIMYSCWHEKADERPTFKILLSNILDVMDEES
T6 sequence (P42680 whole entry): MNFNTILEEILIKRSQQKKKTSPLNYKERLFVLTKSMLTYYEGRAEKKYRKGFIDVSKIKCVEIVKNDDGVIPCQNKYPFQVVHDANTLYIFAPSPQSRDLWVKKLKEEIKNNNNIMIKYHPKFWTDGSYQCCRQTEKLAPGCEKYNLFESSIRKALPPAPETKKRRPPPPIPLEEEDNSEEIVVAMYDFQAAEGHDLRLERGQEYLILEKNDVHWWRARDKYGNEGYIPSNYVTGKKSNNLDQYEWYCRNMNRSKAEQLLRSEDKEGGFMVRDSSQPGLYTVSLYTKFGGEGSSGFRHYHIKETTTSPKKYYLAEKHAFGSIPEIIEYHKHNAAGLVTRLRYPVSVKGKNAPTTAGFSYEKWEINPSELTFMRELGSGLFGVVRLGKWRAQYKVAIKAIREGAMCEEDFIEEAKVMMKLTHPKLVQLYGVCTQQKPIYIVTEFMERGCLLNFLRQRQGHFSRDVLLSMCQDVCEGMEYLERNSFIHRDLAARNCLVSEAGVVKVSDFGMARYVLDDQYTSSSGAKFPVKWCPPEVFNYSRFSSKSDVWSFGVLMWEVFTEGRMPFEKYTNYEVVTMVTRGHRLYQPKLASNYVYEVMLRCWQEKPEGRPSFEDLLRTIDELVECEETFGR

`O=C1CCc2c(Oc3ccc4c(c3)[C@@H]3[C@H](O4)[C@H]3c3nc4ccc(C(F)(F)F)cc4[nH]3)ccnc2N1` [5-(((1R,1aS,6bR)-1-(6-(trifluoromethyl)-1H-benzo[d]imidazol-2-yl)-1a,6b-dihydro-1H-cyclopropa[b]benzofuran-5-yl)oxy)-3,4-dihydro-1,8-naphthyridin-2(1H)-one sesqui-maleate salt] returned a water uptake in series [1] of 0.1801%. In addition, the “enzyme inhibition” value at HER2 (aa676-1255) was “weak inhibition”; at VEGFR2 it was “potently inhibits”; at WT-EGFR (EGFR), “potently inhibits”; on BTK, “no inhibition”; at SRC it was “weak inhibition”; on TEC, “no inhibition”. Besides, the “enzyme inhibition” value at TXK was “weak inhibition”. Further, the IC50 – broadly, the concentration that inhibits the measured activity by half – at HER2 (aa676-1255) (ATP at KM) is 2570 nM; against VEGFR2 (ATP at KM) it was 22 nM; against WT-EGFR (WT-EGFR, ATP at KM), 44 nM; against BTK (ATP at KM), more than 10000 nM; at SRC (ATP at KM), 917 nM; on TEC (ATP at KM) it was more than 10000 nM. The compound further yielded an IC50 against TXK (ATP at KM) of 4800 nM.
